Reference: the supplement of paper PMC10307832

Tests used:
Assay in all cases: relative viability (nuclei count vs DMSO), 5 days (fraction); higher = more cells survive
Avagacestat + Phenformin = compound: NC(=O)[C@@H](CCC(F)(F)F)N(Cc1ccc(-c2ncon2)cc1F)S(=O)(=O)c1ccc(Cl)cc1 [Avagacestat] + N=C(N)NC(=N)NCCc1ccccc1 [Phenformin] (partner 250 µM)
Outline: (§1)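 Medians of duplicate plates are given as relative viability. That measure is the nuclei count in treated wells divided by the count in vehicle wells. Counts were taken on 4× images of lung cancer cell lines in 1536-well plates, 5 days after pin-tool dosing the day after seeding with one drug alone or a fixed anchor-drug dose plus five library-drug doses (not always all listed) in √10 steps.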

Avagacestat + Trametinib = compound: NC(=O)[C@@H](CCC(F)(F)F)N(Cc1ccc(-c2ncon2)cc1F)S(=O)(=O)c1ccc(Cl)cc1 [Avagacestat] + CC(=O)Nc1cccc(-n2c(=O)n(C3CC3)c(=O)c3c(Nc4ccc(I)cc4F)n(C)c(=O)c(C)c32)c1 [Trametinib] (partner 0.02 µM)
Outline: as §1

Avagacestat + OSI-027 = compound: NC(=O)[C@@H](CCC(F)(F)F)N(Cc1ccc(-c2ncon2)cc1F)S(=O)(=O)c1ccc(Cl)cc1 [Avagacestat] + COc1cccc2cc(-c3nc([C@H]4CC[C@H](C(=O)O)CC4)n4ncnc(N)c34)[nH]c12 [OSI-027] (partner 0.5 µM)
Outline: as §1

Avagacestat = compound: NC(=O)[C@@H](CCC(F)(F)F)N(Cc1ccc(-c2ncon2)cc1F)S(=O)(=O)c1ccc(Cl)cc1 [Avagacestat]
Outline: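 Viability was defined as treated-well nuclei divided by vehicle-well nuclei, with the median taken over replicate plates. Cells from lung cancer lines sat overnight at 37 °C in 1536-well plates, received five √10-spaced library-drug doses by pinning on vehicle-anchored plates, and grew 5 days without medium change before one-step fixation, permeabilisation and Hoechst staining, 4× imaging and MetaXpress nuclear counts. Only plates with control CV under 25% and at least one doubling were kept.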

Cell Line	relative viability (Avagacestat + Phenformin; first compound 0.08 µM)	relative viability (Avagacestat + Phenformin; first compound 0.253 µM)	relative viability (Avagacestat + Phenformin; first compound 0.8 µM)	relative viability (Avagacestat + Phenformin; first compound 2.53 µM)	relative viability (Avagacestat + Phenformin; first compound 8 µM)	relative viability (Avagacestat + Trametinib; first compound 0.08 µM)	relative viability (Avagacestat + Trametinib; first compound 0.253 µM)	relative viability (Avagacestat + Trametinib; first compound 0.8 µM)	relative viability (Avagacestat + Trametinib; first compound 2.53 µM)	relative viability (Avagacestat + Trametinib; first compound 8 µM)	relative viability (Avagacestat + OSI-027; first compound 0.08 µM)	relative viability (Avagacestat + OSI-027; first compound 0.253 µM)	relative viability (Avagacestat + OSI-027; first compound 0.8 µM)	relative viability (Avagacestat + OSI-027; first compound 2.53 µM)	relative viability (Avagacestat + OSI-027; first compound 8 µM)	relative viability (Avagacestat; 0.08 µM)	relative viability (Avagacestat; 0.253 µM)	relative viability (Avagacestat; 0.8 µM)	relative viability (Avagacestat; 2.53 µM)	relative viability (Avagacestat; 8 µM)
NCI-H441	1.23	0.957	1.02	0.917	0.676	0.52	0.462	0.449	0.515	0.411	0.859	0.72	0.704	0.589	0.462	1.32	1.61	1.09	1.24	0.794
NCI-H460	0.597	0.866	0.771	0.337	0.379	0.223	0.143	0.13	0.112	0.1	0.953	1.19	0.752	0.551	0.418	1.09	1.31	1.03	0.942	0.951
NCI-H520	0.648	0.612	0.494	0.436	0.529	0.814	0.792	0.611	0.497	0.616	0.241	0.316	0.22	0.249	0.215	1.04	1.08	1	0.918	0.825
NCI-H522	0.71	0.59	0.669	0.641	0.649	0.748	0.74	0.734	0.72	0.795	0.823	0.728	0.655	0.689	0.725	0.922	1.04	0.969	1.12	0.938
NCI-H596	0.78	0.717	0.867	0.699	0.653	0.741	0.783	0.794	0.817	0.7	0.81	0.814	0.688	0.734	0.593	1.06	0.986	0.985	1.04	0.936
NCI-H647	0.534	0.587	0.692	0.487	0.414	0.475	0.502	0.463	0.396	0.384	0.552	0.773	0.575	0.559	0.572	0.992	1.07	1.13	0.922	0.899
NCI-H650	0.484	0.456	0.461	0.524	0.41	1.02	1.06	0.988	1	1.06	0.638	0.472	0.576	0.573	0.445	1.02	0.966	1.05	1.16	0.872
NCI-H661	0.301	0.293	0.298	0.296	0.3	0.589	0.632	0.604	0.548	0.521	0.786	0.775	0.694	0.704	0.669	1.02	1.2	1.04	0.85	1.02
NCI-H727	0.684	0.489	0.778	0.421	0.613	0.443	0.452	0.387	0.434	0.499	0.675	0.632	0.92	0.521	0.517	1.06	0.987	0.948	1.02	0.837
NCI-H838	0.622	0.537	0.598	0.509	0.484	0.534	0.607	0.559	0.442	0.495	0.364	0.466	0.389	0.398	0.366	1.03	1.11	1.05	0.894	0.935
NCI-H1355	0.499	0.441	0.465	0.422	0.41	0.449	0.393	0.447	0.386	0.366	0.404	0.388	0.426	0.38	0.342	1.07	1.2	1.03	0.876	0.874
NCI-H1395	0.424	0.456	0.432	0.45	0.457	1.02	1.05	0.926	0.803	0.949	0.631	0.633	0.634	0.588	0.626	0.909	0.903	0.97	0.875	0.861
NCI-H1437	0.382	0.378	0.342	0.266	0.287	0.518	0.668	0.575	0.398	0.436	0.924	0.949	0.817	0.856	0.777	1.09	0.997	1.1	0.915	0.877
NCI-H1650	0.446	0.416	0.484	0.455	0.412	0.696	0.614	0.73	0.678	0.588	0.49	0.671	0.643	0.782	0.67	1.1	1.08	0.95	1.13	0.881
NCI-H1651	0.321	0.343	0.358	0.293	0.354	0.884	0.93	0.838	0.842	0.813	0.761	0.814	0.848	0.751	0.656	1.08	1.09	1.13	0.98	0.922
NCI-H1666	0.686	0.639	0.619	0.603	0.603	1.29	1.04	1.02	0.991	0.748	1.2	0.933	1.1	0.911	0.905	1.28	1.18	1.26	1.17	1.17

Cell Line	relative viability (Avagacestat + Phenformin; first compound 0.08 µM)	relative viability (Avagacestat + Phenformin; first compound 0.253 µM)	relative viability (Avagacestat + Phenformin; first compound 0.8 µM)	relative viability (Avagacestat + Phenformin; first compound 2.53 µM)	relative viability (Avagacestat + Phenformin; first compound 8 µM)	relative viability (Avagacestat + Trametinib; first compound 0.08 µM)	relative viability (Avagacestat + Trametinib; first compound 0.253 µM)	relative viability (Avagacestat + Trametinib; first compound 0.8 µM)	relative viability (Avagacestat + Trametinib; first compound 2.53 µM)	relative viability (Avagacestat + Trametinib; first compound 8 µM)	relative viability (Avagacestat + OSI-027; first compound 0.08 µM)	relative viability (Avagacestat + OSI-027; first compound 0.253 µM)	relative viability (Avagacestat + OSI-027; first compound 0.8 µM)	relative viability (Avagacestat + OSI-027; first compound 2.53 µM)	relative viability (Avagacestat + OSI-027; first compound 8 µM)	relative viability (Avagacestat; 0.08 µM)	relative viability (Avagacestat; 0.253 µM)	relative viability (Avagacestat; 0.8 µM)	relative viability (Avagacestat; 2.53 µM)	relative viability (Avagacestat; 8 µM)
NCI-H1734	0.451	0.433	0.366	0.373	0.384	0.776	0.796	0.682	0.71	0.633	0.612	0.713	0.643	0.552	0.515	1.04	1.19	1	1.04	0.994
NCI-H1755	0.714	0.652	0.655	0.623	0.577	0.837	0.884	0.8	0.777	0.729	0.816	0.748	0.742	0.654	0.579	1.03	1.1	1.17	0.941	0.964
NCI-H1792	0.474	0.304	0.391	0.19	0.304	0.534	0.641	0.491	0.373	0.439	1.03	–	0.628	–	0.677	1.15	0.866	1.36	0.859	0.761
NCI-H1793	0.411	0.291	0.337	0.284	0.319	0.52	0.536	0.459	0.519	0.479	0.327	0.338	0.373	0.233	0.249	1.04	1.11	1.06	0.858	0.846
NCI-H1915	0.396	0.396	0.368	0.412	0.357	0.29	0.305	0.254	0.3	0.252	0.744	0.639	0.596	0.582	0.568	1.04	1.21	1.06	1.03	0.978
NCI-H1944	0.231	0.236	0.226	0.18	0.204	0.426	0.436	0.373	0.394	0.382	0.394	0.501	0.404	0.343	0.38	1.06	1.15	0.924	0.865	0.922
NCI-H1975	0.48	0.422	0.42	0.398	0.42	0.305	0.361	0.429	0.33	0.361	0.874	0.709	0.873	0.582	0.603	1.02	1.21	1.15	0.943	0.967
NCI-H1993	0.548	0.531	0.473	0.451	0.59	0.576	0.316	0.629	0.504	0.577	0.583	0.548	0.536	0.524	0.521	1.16	1.09	1.34	0.93	1.01
NCI-H2009	0.562	0.595	0.514	0.491	0.455	0.267	0.245	0.283	0.252	0.251	0.708	0.749	0.662	0.579	0.563	1.04	1.09	1.04	1.04	0.912
NCI-H2023	0.474	0.476	0.453	0.35	0.368	0.681	0.59	0.569	0.522	0.449	0.471	0.466	0.505	0.344	0.302	1.18	1.22	1.1	0.912	0.804
NCI-H2085	0.85	0.756	0.726	0.862	0.729	0.608	0.604	0.637	0.559	0.644	0.928	0.837	0.898	0.742	0.897	1.05	1.02	1.04	1.1	0.985
NCI-H2087	0.535	0.561	0.548	0.467	0.441	0.211	0.223	0.196	0.183	0.198	0.631	0.617	0.63	0.54	0.575	1.29	1.06	1.12	1.08	1.06
NCI-H2126	0.509	0.516	0.569	0.561	0.511	0.612	0.553	0.545	0.524	0.512	0.847	0.721	0.703	0.616	0.669	0.994	1.04	1.06	0.921	0.936
NCI-H2170	0.418	0.411	0.377	0.406	0.382	1	1.17	1	0.867	0.881	0.862	0.8	0.851	0.721	0.643	1.08	1.18	0.994	0.938	0.932
NCI-H2228	0.417	0.263	0.271	0.296	0.243	0.591	0.535	0.753	0.59	0.354	0.849	0.455	0.57	0.503	0.504	1.07	1.22	1.29	0.9	1.01
